Data: US20230278972A1, “SUBSTITUTED HALOALKYL SULFONANILIDE HERBICIDES” (FMC Corporation, priority 2020, published 2023)
Where two headings read alike, the source gives them in different places.

Columns and labels:
Format in all cases: in vivo
[1] = tested on: galium (catchweed bedstraw, Galium aparine); experiment: Test A postemergence, galium; conditions: Galium, post-emergence, 240 h, Postemergence, 0 to 100 scale (0 no effect, 100 complete control); for pest or weed control at 125 g/ha: 125 g ai/ha, visual injury approx. 10 days; for pest or weed control at 500 g/ha: 500 g ai/ha
How it was run: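 Preemergence: pigweed seeds in loam soil–sand blend received a directed soil spray of test chemicals in a non-phytotoxic solvent with surfactant. Postemergence: barnyardgrass, wheat and galium in pots of the same soil, 2 to 10 cm tall at one- to two-leaf stage, sprayed with the same formulation.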

[2] = tested on: barnyardgrass (Echinochloa crus-galli); experiment: Test A preemergence, barnyardgrass; conditions: Echinochloa crus-galli, pre-emergence, 240 h, Preemergence; for pest or weed control at 125 g/ha: 125 g ai/ha, visual injury on 0 to 100 scale (0 no effect, 100 complete control), approximately 10 days, read-out: Barnyardgrass plant response rating; for pest or weed control at 500 g/ha: 500 g ai/ha, 0 to 100 scale (0 no effect, 100 complete control), read-out: Plant response rating, Barnyardgrass
How it was run: (§1)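 Preemergence: seeded pots of loam plus sand received a directed soil spray. Postemergence: seedlings at one to two leaves, 2 to 10 cm high, were oversprayed. Each compound was formulated in a non-phytotoxic solvent mix that included a surfactant.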

kochia (Bassia scoparia) [3] = experiment: Test A postemergence, kochia; conditions: Bassia scoparia, post-emergence, 240 h, Postemergence, 0 to 100 scale (0 no effect, 100 complete control); for pest or weed control at 125 g/ha: 125 g ai/ha, visual injury approx. 10 days; for pest or weed control at 500 g/ha: 500 g ai/ha
How it was run: as §1

kochia (Bassia scoparia) [4] = experiment: Test A preemergence, kochia; conditions: Bassia scoparia, pre-emergence, 240 h, Preemergence; for pest or weed control at 125 g/ha: 125 g ai/ha, visual injury on 0 to 100 scale (0 no effect, 100 complete control), approximately 10 days, read-out: Kochia plant response rating; for pest or weed control at 500 g/ha: 500 g ai/ha, 0 to 100 scale (0 no effect, 100 complete control), read-out: Plant response rating, Kochia
How it was run: as §1

[5] = read-out: Plant response rating, Galium
[6] = visual injury vs untreated controls after approx. 10 days, read-out: Galium plant response rating
[7] = read-out: Plant response rating, Kochia
[8] = visual injury vs untreated controls after approx. 10 days, read-out: Kochia plant response rating
[9] = visual injury, approx. 10 days, read-out: Plant response rating, Galium
[10] = visual injury, approx. 10 days, read-out: Plant response rating, Kochia

Structure (SMILES)	pest or weed control at 125 g/ha [1, 5] [%]	pest or weed control at 500 g/ha [1, 6] [%]	pest or weed control at 125 g/ha [2] [%]	pest or weed control at 500 g/ha [2] [%]	pest or weed control at 125 g/ha (kochia (Bassia scoparia) [3]; [7]) [%]	pest or weed control at 500 g/ha (kochia (Bassia scoparia) [3]; [8]) [%]	pest or weed control at 125 g/ha (kochia (Bassia scoparia) [4]) [%]	pest or weed control at 500 g/ha (kochia (Bassia scoparia) [4]) [%]	pest or weed control at 500 g/ha [1, 9] [%]	pest or weed control at 500 g/ha (kochia (Bassia scoparia) [3]; [10]) [%]
Cc1c(NS(=O)(=O)C(F)(F)F)cc(C(=O)N(C)C)c(C)c1F [Compound 128, 3-Fluoro-N,N,2,4-tetramethyl-5-[[(trifluoromethyl)sulfonyl]amino]benzamide]	80	90	100	100	30	70	80	80		
CCc1cc(-c2cc(NS(=O)(=O)C(F)(F)F)c(C)cc2C)c(=O)n(C)n1 [Compound 34, N-[5-(6-Ethyl-2,3-dihydro-2-methyl-3-oxo-4-pyridazinyl)-2,4-dimethylphenyl]-1,1,1-trifluoromethanesulfonamide]	10		0	0	30		30	70	0	50
Cc1cc(Cl)c(NS(=O)(=O)C(F)(F)F)cc1C(=O)N1CCOCC1 [Compound 16, N-[2-Chloro-4-methyl-5-(4-morpholinylcarbonyl)phenyl]-1,1,1-trifluoromethanesulfonamide]	80		90	100	40		90	90	90	80
Cc1cc(C)c(C2=NOC3CCOCC23)cc1NS(=O)(=O)C(F)(F)F (centres unmarked) [Compound 120, N-[2,4-Dimethyl-5-(3a,6,7,7a-tetrahydro-4H-pyrano[3,4-d]isoxazol-3-yl)phenyl]-1,1,1-trifluoromethanesulfonamide]	90	90	90	100	70	90	90	100		
Cc1cc(Cl)c(NS(=O)(=O)C(F)(F)F)cc1C(=O)N1CCCCC1 [Compound 18, N-[2-Chloro-4-methyl-5-(1-piperidinylcarbonyl)phenyl]-1,1,1-trifluoromethanesulfonamide]	80		100	100	10		10	60	80	40
Cc1cc(C)c(N(COC(=O)C(C)(C)C)S(=O)(=O)C(F)(F)F)cc1C1=NO[C@@H]2CCC[C@H]12 [Compound 100, [[2,4-Dimethyl-5-[(3aR,6aR)-3a,5,6,6a-tetrahydro-4H-cyclopent[d]isoxazol-3-yl]phenyl][(trifluoromethyl)sulfonyl]amino]methyl 2,2-dimethylpropanoate]	80	90	70	90	60	90	60	80		
Cc1cc(C)c(C2=NOC3COCCC23)cc1NS(=O)(=O)C(F)(F)F (centres unmarked) [Compound 121, N-[2,4-Dimethyl-5-(3a,4,7,7a-tetrahydro-5H-pyrano[4,3-d]isoxazol-3-yl)phenyl]-1,1,1-trifluoromethanesulfonamide]	90	90	90	90	50	80	90	90		
